Read-outs that look alike come from different tables or passages of the source.
What was measured:
IGROV1 = tested on: IGROV1; parameters: method as in https://dtp.cancer.gov/dtpstandard/dwindex/index.jsp; conditions: reference drugs, ref https://dtp.cancer.gov/dtpstandard/dwindex/index.jsp; cited from earlier work
OVCAR-3 = tested on: OVCAR-3; parameters: method as in https://dtp.cancer.gov/dtpstandard/dwindex/index.jsp; conditions: reference drugs, ref https://dtp.cancer.gov/dtpstandard/dwindex/index.jsp; cited from earlier work
UACC-257 = tested on: UACC-257; parameters: method as in https://dtp.cancer.gov/dtpstandard/dwindex/index.jsp; conditions: reference drugs, ref https://dtp.cancer.gov/dtpstandard/dwindex/index.jsp; cited from earlier work
RXF 393 = tested on: RXF 393; parameters: method as in https://dtp.cancer.gov/dtpstandard/dwindex/index.jsp; conditions: reference drugs, ref https://dtp.cancer.gov/dtpstandard/dwindex/index.jsp; cited from earlier work
SK-MEL-2 = tested on: SK-MEL-2; parameters: method as in https://dtp.cancer.gov/dtpstandard/dwindex/index.jsp; conditions: reference drugs, ref https://dtp.cancer.gov/dtpstandard/dwindex/index.jsp; cited from earlier work
MOLT-4 [1] = tested on: MOLT-4; parameters: method as in https://dtp.cancer.gov/dtpstandard/dwindex/index.jsp; conditions: reference drugs, ref https://dtp.cancer.gov/dtpstandard/dwindex/index.jsp; cited from earlier work
CCRF-CEM [2] = tested on: CCRF-CEM; parameters: method as in https://dtp.cancer.gov/dtpstandard/dwindex/index.jsp; conditions: reference drugs, ref https://dtp.cancer.gov/dtpstandard/dwindex/index.jsp; cited from earlier work
[3] = tested on: melanoma tumour cell lines; conditions: cited from earlier work; for GI50: read-out: GI50 (subpanel average), reference drugs, ref https://dtp.cancer.gov/dtpstandard/dwindex/index.jsp; for CC50: read-out: LC50 (subpanel average), reference drugs, ref https://dtp.cancer.gov/dtpstandard/dwindex/index.jsp; for TGI (subpanel average): reference drugs, ref https://dtp.cancer.gov/dtpstandard/dwindex/index.jsp
HOP-62 = tested on: HOP-62; parameters: method as in https://dtp.cancer.gov/dtpstandard/dwindex/index.jsp; conditions: reference drugs, ref https://dtp.cancer.gov/dtpstandard/dwindex/index.jsp; cited from earlier work
HCT-15 = tested on: HCT-15; parameters: method as in https://dtp.cancer.gov/dtpstandard/dwindex/index.jsp; conditions: reference drugs, ref https://dtp.cancer.gov/dtpstandard/dwindex/index.jsp; cited from earlier work
SK-OV-3 = tested on: SK-OV-3; parameters: method as in https://dtp.cancer.gov/dtpstandard/dwindex/index.jsp; conditions: reference drugs, ref https://dtp.cancer.gov/dtpstandard/dwindex/index.jsp; cited from earlier work
[4] = tested on: leukaemia tumour cell lines; conditions: cited from earlier work; for GI50: read-out: GI50 (subpanel average), reference drugs, ref https://dtp.cancer.gov/dtpstandard/dwindex/index.jsp; for CC50: read-out: LC50 (subpanel average), reference drugs, ref https://dtp.cancer.gov/dtpstandard/dwindex/index.jsp; for TGI (subpanel average): reference drugs, ref https://dtp.cancer.gov/dtpstandard/dwindex/index.jsp
SK-MEL-28 [5] = tested on: SK-MEL-28; parameters: method as in https://dtp.cancer.gov/dtpstandard/dwindex/index.jsp; conditions: reference drugs, ref https://dtp.cancer.gov/dtpstandard/dwindex/index.jsp; cited from earlier work
CCRF-CEM [6] = experiment: NCI antitumor screen (SRB); type: cell-based; conditions: Homo sapiens, one dose 10 µM, read-out: Growth inhibition percentage (GI%)
T-47D = experiment: NCI antitumor screen (SRB); type: cell-based; conditions: Homo sapiens, T47D, one dose 10 µM, read-out: Growth inhibition percentage (GI%)
OVCAR-4 = experiment: NCI antitumor screen (SRB); type: cell-based; conditions: Homo sapiens, one dose 10 µM, read-out: Growth inhibition percentage (GI%)
SNB-19 = experiment: NCI antitumor screen (SRB); type: cell-based; conditions: Homo sapiens, one dose 10 µM, read-out: Growth inhibition percentage (GI%)
HT29 = experiment: NCI antitumor screen (SRB); type: cell-based; conditions: Homo sapiens, HT-29, one dose 10 µM, read-out: Growth inhibition percentage (GI%)
HS 578 T = experiment: NCI antitumor screen (SRB); type: cell-based; conditions: Homo sapiens, one dose 10 µM, read-out: Growth inhibition percentage (GI%)
MOLT-4 [7] = experiment: NCI antitumor screen (SRB); type: cell-based; conditions: Homo sapiens, one dose 10 µM, read-out: Growth inhibition percentage (GI%)
HCT-116 = experiment: NCI antitumor screen (SRB); type: cell-based; conditions: Homo sapiens, read-out: Growth inhibition percentage (GI%)
MCF7 = experiment: NCI antitumor screen (SRB); type: cell-based; conditions: Homo sapiens, one dose 10 µM, read-out: Growth inhibition percentage (GI%)
LOX IMVI = experiment: NCI antitumor screen (SRB); type: cell-based; conditions: Homo sapiens, one dose 10 µM, read-out: Growth inhibition percentage (GI%)
OVCAR-5 = experiment: NCI antitumor screen (SRB); type: cell-based; conditions: Homo sapiens, one dose 10 µM, read-out: Growth inhibition percentage (GI%)
SK-MEL-28 [8] = experiment: NCI antitumor screen (SRB); type: cell-based, human; conditions: Homo sapiens, one dose 10 µM, read-out: Growth inhibition percentage (GI%)
HL60 cells [9] = experiment: Annexin V-FITC/PI apoptosis assay; type: cell-based, human; conditions: HL60, 10 µM, 24 h
Experimental: Apoptosis induction is the most important mechanism by which major chemotherapeutics kill cancer cells. Apoptosis causes cellular changes whereby the translocation of phosphatidylserine (PS) occurs through the plasma membrane from the inside to the outside. Annexin-V can bind to PS, which can be used as a sensitive probe for PS on the outer side of the plasma membrane. […] The AV/PI staining of HL60 cells was performed at a mixed molar concentration of 10 µM with compounds 6, 9, 16, and 20 for 24 h. Figure 4 and Table 5 show the results of treating HL60 cells with compounds 6, 9, 16, and 20 for 24 h.
According to our previous report, apoptosis induction was performed using the Leukaemia HL-60 cell line and well-established Annexin 5-FITC/PI detection kit. The cell line samples were analysed using FACSCalibur flow cytometer[40]^,[72]. […]
[(Ti-Tz)/Tz)] x 100 for concentration of which Ti ≤ Tz.
The induction of apoptosis was performed according to our previous report using Leukemia HL-
60 cell line and well-established Annexin 5-FITC/PI detection kit. The cell line samples were
analyzed using a FACSCalibur flow cytometer. […]

HL60 cells [10] = experiment: Cell cycle analysis (PI, flow cytometry); type: cell-based, human; conditions: HL60, 10.0 µM, 24 h
Experimental: Antitumor agents can induce apoptosis by activating signalling pathways, leading to G2/M phase arrest[73]^,[74]. Flow cytometry is used to measure cell growth in different cell cycle phases (pre-G1, G1, S, and G2/M)[73]^,[74]. […]. We used the solvent DMSO as a negative control. Briefly, we incubated HL60 cells with 10 µM compounds 6, 9, 16, and 20 for 24 h. Compounds 6, 9, 16, and 20 interfered with the normal cell cycle of HL60 cells. […] […].
Cell cycle analysis was carried out similar to our previous report using the Leukaemia HL-60 cell line stained with the DNA fluorochrome PI and analysed by FACSCalibur flow cytometer[40]^,[74].
Using a method similar to that of our previous report, cell cycle analysis was carried out using Leukemia HL-60 cell line, stained with the DNA fluorochrome PI, and analyzed by FACSCalibur flow cytometer. Leukemia HL-60 cell was seeded at a density of 2 × 10^5 cells/well and incubated for 24 h in six-well plates. Fetal bovine serum (10%) was added, and the cells were incubated at 37°C in an atmosphere of 5% CO2. The medium was replaced with 1% (v/v) dimethyl sulfoxide (DMSO), containing 10.0 μM of compound 9. […]
Afterward, […]
the samples were analyzed using a FACSCalibur flow cytometer. […]
(AA) to PGH2. […]

SMILES	GI50 [3]	CC50 [3]	TGI (subpanel average) [3]	GI50 [4]	CC50 [4]	TGI (subpanel average) [4]	inhibition at 10 µM (CCRF-CEM [6])	inhibition at 10 µM (T-47D)	inhibition at 10 µM (OVCAR-4)	inhibition at 10 µM (SNB-19)	inhibition at 10 µM (HT29)	inhibition at 10 µM (HS 578 T)	inhibition at 10 µM (MOLT-4 [7])	inhibition at 10 µM (HCT-116)	inhibition at 10 µM (MCF7)	inhibition at 10 µM (LOX IMVI)	inhibition at 10 µM (OVCAR-5)	Apoptosis, early (HL60 cells [9])	Apoptosis, late (HL60 cells [9])	Apoptosis, total (annexin V-FITC positive cells) (HL60 cells [9])	other results
Cc1ccc(-c2cc(C(F)(F)F)nn2-c2ccc(S(N)(=O)=O)cc2)cc1 [Celecoxib, celecoxib]	22.5 µM	64.3 µM	38.49 µM	12.3 µM	67.1 µM	29.27 µM															GI50 (IGROV1): 15.8 µM; GI50 (OVCAR-3): 15.8 µM; GI50 (UACC-257): 19.9 µM; GI50 (RXF 393): 15.8 µM; GI50 (SK-MEL-2): 15.8 µM; GI50 (MOLT-4 [1]): 15.8 µM; GI50 (CCRF-CEM [2]): 12.6 µM; GI50 (HOP-62): 63.1 µM; GI50 (HCT-15): 15.8 µM; GI50 (SK-OV-3): 19.9 µM; GI50 (SK-MEL-28 [5]): 15.8 µM
O=c1[nH]cc(F)c(=O)[nH]1 [Compound 5-Fu, 5-fluorouracil, reference compound]	7.83 µM	95.4 µM	61.57 µM	2.82 µM	> 100 µM	68.37 µM	42.9%	43.3%	40.6%	34.1%	72.9%	> 100%	56.9%	82.2%	88.5%	69.6%	55.7%				
CS(=O)(=O)c1ccc(C(=O)NN=Cc2cccc3ccccc23)cc1 [Compound 6, 4-(Methylsulfonyl)-N'-(naphthalen-1-ylmethylene)benzohydrazide]							22.4%	14.7%	< 10%	20.2%	50.5%	14.9%	53.2%	38.2%	55.1%	27.6%	< 10%	3.52%	7.64%	12.57%	inhibition at 10 µM (SK-MEL-28 [8]; SK-MEL-28): 10.6%; Necrosis (HL60 cells [9]): 1.41%; %G0-G1 (HL60 cells [10]): 48.31%; %G2-M (HL60 cells [10]): 23.27%; %Pre-G1 (HL60 cells [10]): 12.57%; %S (HL60 cells [10]): 28.42%
Cc1ccc(C=NNC(=O)c2ccc(S(C)(=O)=O)cc2)cc1 [Compound 9, N'-(4-Methylbenzylidene)-4-(methylsulfonyl)benzohydrazide]							20.8%	< 10%	< 10%	< 10%	17.7%	< 10%	22.6%	13.9%	21.4%	< 10%	< 10%	5.66%	9.04%	16.89%	inhibition at 10 µM (SK-MEL-28 [8]; SK-MEL-28, SK-MEL-28): < 10%; Necrosis (HL60 cells [9]): 2.19%; %G0-G1 (HL60 cells [10]): 43.15%; %G2-M (HL60 cells [10]): 29.44%; %Pre-G1 (HL60 cells [10]): 16.89%; %S (HL60 cells [10]): 27.41%
